Patent US9856268B2, “Lactam kinase inhibitors” (G1 Therapeutics, Inc., priority 2012, dated 2018)

Molecular target: JNK2 (Homo sapiens, UniProt P45984)
Assay: Kinase electrophoretic mobility shift assay, JNK2
Format: biochemical
Settings: compounds tested at 10 μM, average of n = 2, ATP at apparent Km; read-out: JNK2 activity (percent inhibition)
Procedure: (§1) Kinase activity is measured in vitro using electrophoretic mobility shift assay. The kinase reactions are assembled in 384 well plates in total volume of 25 μL. The reactions comprise: purified recombinant kinase enzyme, test compound, ATP (at apparent Km for each kinase), and fluorescently labeled peptide substrate. The reaction buffer composed of: 100 mM HEPES, pH7.5; 5 mM MgCl2; 1 mM DTT; 0.1% bovine serum albumin; 0.01% Triton X-100, and 1% DMSO (from compound). The reactions were incubated at room temperature for indicated time and quenched by addition of 45 μL of termination buffer (100 mM HEPES pH7.5; 0.01% Triton X-100; 30 mM EDTA). Substrate and product peptides in each sample were electrophoretically separated and detected using 12 channel LabChip3000® microfluidic capillary electrophoresis instrument (Caliper Life Sciences). The change in the relative fluorescence intensities of substrate and product peaks (reflecting enzyme activity) was measured. Capillary electrophoregramms were analyzed using HTS Well Analyzer software (Caliper Life Sciences). The kinase activity in each sample was determined as “product to sum” ratio (PSR):P/(S+P), where P is the peak height of the product peptide and S is the peak height of the substrate peptide. Negative control samples (0%-inhibition in the absence of inhibitor) and positive control samples (100%-inhibition, in the presence of 20 mM EDTA) were assembled in replicates of four and were used to calculate %-inhibition values for each compound at each concentration. Percent inhibition (Pinh) was determined using following equation: Pinh=(PSR0%−PSRinh)/(PSR0%−PSR100%)*100, where PSRinh is the product-sum ratio in the presence of inhibitor, PSR0% is the average product-sum ration in the absence of inhibitor and PSR100% is the average product-sum ratio in 100%-inhibition control samples. The IC50 values of reference inhibitors were determined by fitting the inhibition curves by a 4 parameter sigmoid dose-response model using XLfit 4 software (IDBS).

JNK2, sequence (P45984 whole entry, species assumed): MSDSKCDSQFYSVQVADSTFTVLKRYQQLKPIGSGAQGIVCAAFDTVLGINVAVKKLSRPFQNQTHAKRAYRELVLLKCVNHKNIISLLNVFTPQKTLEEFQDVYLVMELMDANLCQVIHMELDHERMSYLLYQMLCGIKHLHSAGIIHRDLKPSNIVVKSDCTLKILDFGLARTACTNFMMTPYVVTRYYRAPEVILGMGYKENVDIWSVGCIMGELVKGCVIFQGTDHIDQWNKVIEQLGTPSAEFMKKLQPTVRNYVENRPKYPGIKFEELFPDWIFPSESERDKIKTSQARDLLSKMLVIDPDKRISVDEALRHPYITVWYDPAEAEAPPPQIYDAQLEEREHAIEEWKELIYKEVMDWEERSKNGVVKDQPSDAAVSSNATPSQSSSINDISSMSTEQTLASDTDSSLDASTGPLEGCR

inhibition at 10 µM | Structure (SMILES)
> 90% | CCC1Cn2c(cc3cnc(N[C@H]4CC[C@H](O)CC4)nc32)C(=O)N1 (some centres unmarked) [Compd 5]
> 90% | O=C1NC2(CCCC2)Cn2c1cc1cnc(N[C@H]3CC[C@H](O)CC3)nc12 [Compd 6]
> 90% | O=C1NCC2(CCCC2)n2c1cc1cnc(N[C@H]3CC[C@H](O)CC3)nc12 [Compd 7]

Tested on: treatment-refractory metastatic colorectal cancer
Assay: not given
Settings: single agent, patients with treatment-refractory metastatic colorectal cancer, phase III; cited from earlier work

Structure (SMILES) | disease progression | overall survival
CNC(=O)c1cc(Oc2ccc(NC(=O)Nc3ccc(Cl)c(C(F)(F)F)c3)c(F)c2)ccn1 [regorafenib] | delayed disease progression | significantly improved overall survival

Molecular target: T1, Aurora -A (Homo sapiens, UniProt O14965)
T1 sequence (O14965 1-403): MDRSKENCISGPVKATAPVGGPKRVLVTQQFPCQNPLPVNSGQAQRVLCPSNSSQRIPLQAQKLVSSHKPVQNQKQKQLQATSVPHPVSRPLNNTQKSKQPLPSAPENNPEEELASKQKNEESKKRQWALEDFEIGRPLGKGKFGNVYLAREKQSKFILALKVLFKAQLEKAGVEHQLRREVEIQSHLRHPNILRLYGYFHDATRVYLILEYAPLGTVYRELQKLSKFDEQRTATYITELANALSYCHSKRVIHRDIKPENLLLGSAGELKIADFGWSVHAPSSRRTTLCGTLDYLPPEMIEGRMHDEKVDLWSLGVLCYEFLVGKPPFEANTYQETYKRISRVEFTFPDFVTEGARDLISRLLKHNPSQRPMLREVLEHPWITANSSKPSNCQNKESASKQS
Assay: Kinase electrophoretic mobility shift assay, Aurora -A
Format: biochemical
Settings: compounds tested at 10 μM, average of n = 2, ATP at apparent Km; read-out: Aurora -A activity (percent inhibition)
Procedure: as §1

inhibition at 10 µM | Structure (SMILES)
< 50% | CCC1Cn2c(cc3cnc(N[C@H]4CC[C@H](O)CC4)nc32)C(=O)N1 (some centres unmarked) [Compd 5]
50 to 70% | O=C1NC2(CCCC2)Cn2c1cc1cnc(N[C@H]3CC[C@H](O)CC3)nc12 [Compd 6]
> 90% | O=C1NCC2(CCCC2)n2c1cc1cnc(N[C@H]3CC[C@H](O)CC3)nc12 [Compd 7]

Molecular target: GSK-3 beta (Homo sapiens, UniProt P49841)
Sequence (P49841 whole entry, species assumed): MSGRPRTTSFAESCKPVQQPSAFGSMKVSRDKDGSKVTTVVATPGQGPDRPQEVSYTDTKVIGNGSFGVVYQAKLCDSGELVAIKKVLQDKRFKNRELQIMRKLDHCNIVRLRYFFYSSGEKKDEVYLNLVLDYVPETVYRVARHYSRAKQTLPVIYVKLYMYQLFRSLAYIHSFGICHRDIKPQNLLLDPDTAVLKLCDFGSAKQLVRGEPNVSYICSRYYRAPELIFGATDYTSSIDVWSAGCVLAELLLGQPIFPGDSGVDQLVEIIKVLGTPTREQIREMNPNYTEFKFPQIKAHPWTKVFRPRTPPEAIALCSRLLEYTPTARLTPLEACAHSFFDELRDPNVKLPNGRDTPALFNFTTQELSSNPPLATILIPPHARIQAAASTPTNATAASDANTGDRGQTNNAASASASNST
Assay: Kinase electrophoretic mobility shift assay, GSK-3 beta
Format: biochemical
Settings: compounds tested at 10 μM, average of n = 2, ATP at apparent Km; read-out: GSK-3 beta activity (percent inhibition)
Procedure: as §1

inhibition at 10 µM | Structure (SMILES)
> 90% | CCC1Cn2c(cc3cnc(N[C@H]4CC[C@H](O)CC4)nc32)C(=O)N1 (some centres unmarked) [Compd 5]
> 90% | O=C1NC2(CCCC2)Cn2c1cc1cnc(N[C@H]3CC[C@H](O)CC3)nc12 [Compd 6]
> 90% | O=C1NCC2(CCCC2)n2c1cc1cnc(N[C@H]3CC[C@H](O)CC3)nc12 [Compd 7]

Molecular target: FMS (Homo sapiens, UniProt P07333)
Sequence (P07333 20-972, species assumed): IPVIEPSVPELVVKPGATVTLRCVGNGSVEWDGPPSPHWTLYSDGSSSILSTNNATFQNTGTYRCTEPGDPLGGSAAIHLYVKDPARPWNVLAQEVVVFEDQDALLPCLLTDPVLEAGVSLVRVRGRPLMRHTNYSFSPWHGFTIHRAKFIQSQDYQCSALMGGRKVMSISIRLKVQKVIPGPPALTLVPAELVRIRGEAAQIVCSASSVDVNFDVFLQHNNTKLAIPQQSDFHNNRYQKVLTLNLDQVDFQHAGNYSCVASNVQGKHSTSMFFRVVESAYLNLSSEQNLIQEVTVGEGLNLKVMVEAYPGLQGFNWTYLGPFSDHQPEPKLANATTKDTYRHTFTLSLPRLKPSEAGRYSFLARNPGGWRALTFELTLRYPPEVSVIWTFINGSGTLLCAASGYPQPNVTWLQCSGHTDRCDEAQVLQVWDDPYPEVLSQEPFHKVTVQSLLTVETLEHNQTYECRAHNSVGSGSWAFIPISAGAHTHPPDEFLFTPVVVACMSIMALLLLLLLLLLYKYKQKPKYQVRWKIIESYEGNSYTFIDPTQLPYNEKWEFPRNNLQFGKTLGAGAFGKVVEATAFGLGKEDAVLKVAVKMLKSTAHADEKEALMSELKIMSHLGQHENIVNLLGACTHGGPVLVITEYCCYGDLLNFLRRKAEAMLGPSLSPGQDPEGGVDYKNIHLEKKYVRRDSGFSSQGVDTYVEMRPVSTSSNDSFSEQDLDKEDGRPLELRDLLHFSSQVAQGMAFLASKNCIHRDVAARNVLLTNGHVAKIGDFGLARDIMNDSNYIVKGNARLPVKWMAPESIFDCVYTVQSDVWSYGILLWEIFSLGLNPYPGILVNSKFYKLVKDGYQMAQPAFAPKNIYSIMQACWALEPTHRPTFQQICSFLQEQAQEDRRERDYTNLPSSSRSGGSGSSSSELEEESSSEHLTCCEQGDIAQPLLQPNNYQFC
Assay: Kinase electrophoretic mobility shift assay, FMS
Format: biochemical
Settings: compounds tested at 10 μM, average of n = 2, ATP at apparent Km; read-out: FMS activity (percent inhibition)
Procedure: as §1

inhibition at 10 µM | Structure (SMILES)
71 to 90% | CCC1Cn2c(cc3cnc(N[C@H]4CC[C@H](O)CC4)nc32)C(=O)N1 (some centres unmarked) [Compd 5]
50 to 70% | O=C1NC2(CCCC2)Cn2c1cc1cnc(N[C@H]3CC[C@H](O)CC3)nc12 [Compd 6]
71 to 90% | O=C1NCC2(CCCC2)n2c1cc1cnc(N[C@H]3CC[C@H](O)CC3)nc12 [Compd 7]

Molecular target: P38 beta (Homo sapiens, UniProt Q15759)
Sequence (Q15759 whole entry): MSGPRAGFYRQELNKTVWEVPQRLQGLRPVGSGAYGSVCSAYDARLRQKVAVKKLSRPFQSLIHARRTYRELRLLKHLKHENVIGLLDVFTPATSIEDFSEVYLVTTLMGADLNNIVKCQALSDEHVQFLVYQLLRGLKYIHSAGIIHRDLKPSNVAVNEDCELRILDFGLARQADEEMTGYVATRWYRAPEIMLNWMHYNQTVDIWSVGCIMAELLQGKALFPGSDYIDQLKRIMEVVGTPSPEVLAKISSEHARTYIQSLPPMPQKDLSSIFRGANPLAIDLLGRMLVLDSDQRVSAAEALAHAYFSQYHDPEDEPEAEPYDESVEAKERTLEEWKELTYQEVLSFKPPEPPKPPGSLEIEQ
Assay: Kinase electrophoretic mobility shift assay, P38 beta
Format: biochemical
Settings: compounds tested at 10 μM, average of n = 2, ATP at apparent Km; read-out: P38 beta activity (percent inhibition)
Procedure: as §1

inhibition at 10 µM | Structure (SMILES)
50 to 70% | CCC1Cn2c(cc3cnc(N[C@H]4CC[C@H](O)CC4)nc32)C(=O)N1 (some centres unmarked) [Compd 5]
50 to 70% | O=C1NC2(CCCC2)Cn2c1cc1cnc(N[C@H]3CC[C@H](O)CC3)nc12 [Compd 6]
71 to 90% | O=C1NCC2(CCCC2)n2c1cc1cnc(N[C@H]3CC[C@H](O)CC3)nc12 [Compd 7]

Molecular target: T2, DYRK3 (Homo sapiens, UniProt O43781)
T2 sequence (O43781 1-588): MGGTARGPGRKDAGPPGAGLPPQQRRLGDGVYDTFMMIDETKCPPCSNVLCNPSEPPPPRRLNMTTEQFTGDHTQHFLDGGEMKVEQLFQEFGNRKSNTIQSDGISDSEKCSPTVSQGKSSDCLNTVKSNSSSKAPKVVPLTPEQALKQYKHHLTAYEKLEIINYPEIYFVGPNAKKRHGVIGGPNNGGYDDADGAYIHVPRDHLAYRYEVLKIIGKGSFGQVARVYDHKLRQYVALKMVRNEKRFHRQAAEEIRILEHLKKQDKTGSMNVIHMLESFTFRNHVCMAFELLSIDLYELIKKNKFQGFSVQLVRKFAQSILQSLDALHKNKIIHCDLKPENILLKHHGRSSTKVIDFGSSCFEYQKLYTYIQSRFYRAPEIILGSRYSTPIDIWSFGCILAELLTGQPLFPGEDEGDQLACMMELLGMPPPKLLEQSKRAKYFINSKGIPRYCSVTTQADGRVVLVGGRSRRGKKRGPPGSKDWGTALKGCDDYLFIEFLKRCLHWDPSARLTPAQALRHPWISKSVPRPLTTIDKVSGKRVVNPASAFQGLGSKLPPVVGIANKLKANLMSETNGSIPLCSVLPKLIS
Assay: Kinase electrophoretic mobility shift assay, DYRK3
Format: biochemical
Settings: compounds tested at 10 μM, average of n = 2, ATP at apparent Km; read-out: DYRK3 activity (percent inhibition)
Procedure: as §1

inhibition at 10 µM | Structure (SMILES)
71 to 90% | CCC1Cn2c(cc3cnc(N[C@H]4CC[C@H](O)CC4)nc32)C(=O)N1 (some centres unmarked) [Compd 5]
71 to 90% | O=C1NC2(CCCC2)Cn2c1cc1cnc(N[C@H]3CC[C@H](O)CC3)nc12 [Compd 6]
> 90% | O=C1NCC2(CCCC2)n2c1cc1cnc(N[C@H]3CC[C@H](O)CC3)nc12 [Compd 7]

Molecular target: MAPK3 (Homo sapiens, UniProt P27361)
Sequence (P27361 whole entry): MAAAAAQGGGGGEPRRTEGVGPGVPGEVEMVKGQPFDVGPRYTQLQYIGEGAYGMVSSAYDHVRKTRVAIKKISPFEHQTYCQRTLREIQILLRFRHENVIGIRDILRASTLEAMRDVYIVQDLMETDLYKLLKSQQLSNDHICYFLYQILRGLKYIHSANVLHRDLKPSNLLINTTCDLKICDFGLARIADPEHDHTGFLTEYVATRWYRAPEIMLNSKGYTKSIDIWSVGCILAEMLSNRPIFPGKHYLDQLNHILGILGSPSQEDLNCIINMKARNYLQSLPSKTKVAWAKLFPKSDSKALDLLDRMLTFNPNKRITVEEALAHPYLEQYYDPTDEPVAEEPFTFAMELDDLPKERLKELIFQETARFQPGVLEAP
Assay: Kinase electrophoretic mobility shift assay, MAPK3
Format: biochemical
Settings: compounds tested at 10 μM, average of n = 2, ATP at apparent Km; read-out: MAPK3 activity (percent inhibition)
Procedure: as §1

inhibition at 10 µM | Structure (SMILES)
71 to 90% | CCC1Cn2c(cc3cnc(N[C@H]4CC[C@H](O)CC4)nc32)C(=O)N1 (some centres unmarked) [Compd 5]
> 90% | O=C1NC2(CCCC2)Cn2c1cc1cnc(N[C@H]3CC[C@H](O)CC3)nc12 [Compd 6]
> 90% | O=C1NCC2(CCCC2)n2c1cc1cnc(N[C@H]3CC[C@H](O)CC3)nc12 [Compd 7]

Molecular target: T3, HIPK4 (Homo sapiens, UniProt Q8NE63)
T3 sequence (Q8NE63 1-616): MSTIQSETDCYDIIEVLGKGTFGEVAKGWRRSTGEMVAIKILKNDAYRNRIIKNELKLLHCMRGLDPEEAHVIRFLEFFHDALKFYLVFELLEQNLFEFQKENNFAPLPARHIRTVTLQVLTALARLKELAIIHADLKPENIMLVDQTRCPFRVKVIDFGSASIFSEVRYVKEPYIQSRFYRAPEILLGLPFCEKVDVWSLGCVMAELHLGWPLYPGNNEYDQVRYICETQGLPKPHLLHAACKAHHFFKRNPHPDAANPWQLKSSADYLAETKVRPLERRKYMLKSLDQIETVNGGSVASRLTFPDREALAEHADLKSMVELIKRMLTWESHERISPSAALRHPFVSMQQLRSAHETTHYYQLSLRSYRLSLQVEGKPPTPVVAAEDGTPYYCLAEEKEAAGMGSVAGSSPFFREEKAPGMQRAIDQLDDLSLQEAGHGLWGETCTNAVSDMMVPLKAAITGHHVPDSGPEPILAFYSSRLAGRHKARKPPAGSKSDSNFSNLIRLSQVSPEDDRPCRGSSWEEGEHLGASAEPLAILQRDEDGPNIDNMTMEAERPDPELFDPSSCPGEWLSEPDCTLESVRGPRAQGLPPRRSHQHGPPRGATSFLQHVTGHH
Assay: Kinase electrophoretic mobility shift assay, HIPK4
Format: biochemical
Settings: compounds tested at 10 μM, average of n = 2, ATP at apparent Km; read-out: HIPK4 activity (percent inhibition)
Procedure: as §1

inhibition at 10 µM | Structure (SMILES)
> 90% | CCC1Cn2c(cc3cnc(N[C@H]4CC[C@H](O)CC4)nc32)C(=O)N1 (some centres unmarked) [Compd 5]
> 90% | O=C1NC2(CCCC2)Cn2c1cc1cnc(N[C@H]3CC[C@H](O)CC3)nc12 [Compd 6]
> 90% | O=C1NCC2(CCCC2)n2c1cc1cnc(N[C@H]3CC[C@H](O)CC3)nc12 [Compd 7]

Molecular target: MNK2 (Homo sapiens, UniProt Q9HBH9)
Sequence (Q9HBH9 whole entry, species assumed): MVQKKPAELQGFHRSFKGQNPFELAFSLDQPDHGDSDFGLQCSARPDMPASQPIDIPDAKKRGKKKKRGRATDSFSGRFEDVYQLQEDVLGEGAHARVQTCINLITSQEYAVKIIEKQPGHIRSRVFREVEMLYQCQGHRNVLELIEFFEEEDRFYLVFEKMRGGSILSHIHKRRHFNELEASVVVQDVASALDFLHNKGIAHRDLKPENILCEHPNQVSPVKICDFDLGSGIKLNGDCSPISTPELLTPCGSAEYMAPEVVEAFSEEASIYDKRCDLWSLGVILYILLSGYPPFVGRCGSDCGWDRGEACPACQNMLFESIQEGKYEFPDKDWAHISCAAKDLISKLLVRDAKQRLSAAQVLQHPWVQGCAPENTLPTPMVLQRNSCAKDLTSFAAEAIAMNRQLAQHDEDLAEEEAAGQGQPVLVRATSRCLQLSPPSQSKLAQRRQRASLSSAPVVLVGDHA
Assay: Kinase electrophoretic mobility shift assay, MNK2
Format: biochemical
Settings: compounds tested at 10 μM, average of n = 2, ATP at apparent Km; read-out: MNK2 activity (percent inhibition)
Procedure: as §1

inhibition at 10 µM | Structure (SMILES)
50 to 70% | CCC1Cn2c(cc3cnc(N[C@H]4CC[C@H](O)CC4)nc32)C(=O)N1 (some centres unmarked) [Compd 5]
50 to 70% | O=C1NC2(CCCC2)Cn2c1cc1cnc(N[C@H]3CC[C@H](O)CC3)nc12 [Compd 6]
71 to 90% | O=C1NCC2(CCCC2)n2c1cc1cnc(N[C@H]3CC[C@H](O)CC3)nc12 [Compd 7]
